Columns and labels:
Format in all cases: physicochemical
[1] = Stability of azithromycin form G in suspensions prepared from POS formulations I, II and III; details: 18 mls water, 30° C.
Description: These POS formulations were created by individually weighing each formulation component into a 60-cc High Density Polyethylene (HDPE) bottle with closure. The resulting formulations were then dry-mixed with a Turbula blender (Glen Mills Inc. Maywood, NJ) for 5 minutes. The powder blends were then constituted with 18 mls of water, shaken for 30 seconds and stored without agitation under controlled temperature conditions.
Upon conclusion of the storage time period the POS samples were filtered using a Buchner funnel in combination with a standard vacuum filtration apparatus. A Millipore prefilter (AP25, 47 mm) was fitted onto the funnel for the collection of suspended solids. Before filtering, the constituted POS sample was poured into a 200 ml volumetric flask and diluted to 200 ml with water. This lowered the viscosity of the sample, facilitating a quick filtration step. With the vacuum on, the diluted POS samples were poured onto the Millipore prefilter. The isolated filtrate remaining on top of the prefilter was then allowed to stand for 2-minutes in order to dry. Vacuum was applied to the filtration apparatus during this drying step. Suspensions containing only bulk drug were transferred directly onto the filter paper upon completion of storage, without the described dilution step during sample preparation. After drying, the collected filtrate was placed into 4 cc Sunbroker vials and analyzed via Solid-State Nuclear Magnetic Resonance (SS-NMR) for quantification of conversion to azithromycin dihydrate (form A).
Approximately 300 mg of sample were tightly packed into a 7 mm ZrO spinner for each sample analyzed. One-dimensional ^13C spectra were collected at ambient pressure using ^1H-^13C cross-polarization magic angle spinning (CPMAS) at 295 K on a Bruker 7 mm BL CPMAS probe positioned into a wide-bore Bruker Avance DSX 500 MHz NMR spectrometer (Bruker BioSpin Corporation; Billerica, Mass.). The samples were spun at 7000 Hz corresponding to the maximum specified spinning speed for the 7 mm spinners. The fast spinning speed minimized the intensities of the spinning side bands. To optimize the signal sensitivity, the cross-polarization contact time was adjusted to 2.3 ms and the decoupling power was set to 65 kHz. Typically, a total of 600 scans were acquired, resulting in approximately a 30 minute acquisition time. The spectra were referenced using an external sample of adamantane with its most upfield resonance set to 29.5 ppm.
Eight pairs of resolved peaks were identified to calibrate ratios of form A in the presence of form G, N, M or F. Integral intensities of all peaks were used as input for the calibration procedure using five different binary mixtures ranging from 3 to 81% of form A with each non-dihydrate form. From this, one non-linear calibration graph was generated for each pair of peaks and each form. For the experimental samples, only the peaks that were totally void from excipient overlap were preferentially integrated. The unknown percentages of form A were then determined from the appropriate calibration graphs. The final result for each sample analyzed was calculated as a weighted average of the determinations from each resolved peak pair.
The stability of form G azithromycin was also evaluated for suspensions prepared from POS formulations I, II and III. The form G bulk drug substance contained <1% by weight of form A prior to formulation and constitution. These suspensions were constituted with 18 mls of water and stored for 1 and 10 days at 30° C.

[2] = Effects of flavoring components upon azithromycin form G conversion in constituted POS; details: room temperature, 24-hours
Description: Standards of these identified solvent components were then used to investigate the source of the stability problem introduced by these flavorings. The estimated concentration of each solvent in a constituted POS was calculated based on the GC-MS quantification of the specified solvent in the flavorings. Aqueous solutions of each solvent/component were then created at these concentrations and 18 mls of each solvent-solution was used to constitute an unflavored POS formulation I sample using form G. The constituted drug suspensions were stored at room temperature for 24-hours, before being filtered and analyzed by SS-NMR for quantification of azithromycin form change over this interval. POS formulations I and II were constituted with 18 mls of water and stored identically to serve as controls for this experiment.

[3] = Effect of cyclodextrins on non-dihydrate azithromycin form conversion in constituted POS formulation II; details: 24 hours room temperature
Description: The effect of adding a complexing agent such as cyclodextrin on the stability of non-dihydrate azithromycin forms G, M and F against conversion in a constituted POS formulation were evaluated.
Forms G, M and F of azithromycin were formulated into POS formulation II. Various cyclodextrins were added to the POS formulation II and the resulting samples were constituted with 18 mls of water. The suspensions were then stored for 24 hours at room temperature. At the end of the storage time, the suspensions were filtered and the recovered solids were weighed and analyzed by SS-NMR to quantify the presence of azithromycin dihydrate (form A). The control samples were formulated into formulation II with non-dihydrate azithromycin form G, M and F without cyclodextrins and were constituted with water, stored, filtered and analyzed identically to the cyclodextrin samples described above. A control, which had no cyclodextrin was run with each series of experiments. The SS-NMR data are presented in Tables 10, 11, 12 and the results are given as weight percent (% wt), of the recovered azithromycin sample.

CC[C@H]1OC(=O)[C@H](C)[C@@H](O[C@H]2C[C@@](C)(OC)[C@@H](O)[C@H](C)O2)[C@H](C)[C@@H](O[C@@H]2O[C@H](C)C[C@H](N(C)C)[C@H]2O)[C@](C)(O)C[C@@H](C)CN(C)[C@H](C)[C@@H](O)[C@]1(C)O [Form G, azithromycin sesquihydrate]
% Form A ([1]; Formulation I (no flavorings), Day 1): 0%
% Form A ([1]; Formulation I (no flavorings), Day 10, listed as form G, sesquihydrate): did not exhibit conversion
% Form A ([1]; Formulation I (no flavorings), Day 10, sesquihydrate): 0%
% Form A ([1]; Formulation II (Trusil banana), Day 1): 84%
% Form A ([1]; Formulation II (Trusil banana), Day 10): 91%
% Form A ([1]; Formulation III (B&C banana), Day 1): 27%
% Form A ([1]; Formulation III (B&C banana), Day 10): 52%
% Form A ([2]; Formulation I constituted with 18 mL 0.002 mg/ml ethyl ester propanoic acid): 0%
% Form A ([2]; Formulation I constituted with 18 mL 0.025 mg/ml 3-methyl-1-butanol): 0%
% Form A ([2]; Formulation I constituted with 18 mL 0.043 mg/ml isoamyl isovalerate): 13%
% Form A ([2]; Formulation I constituted with 18 mL 0.144 mg/ml 2-methyl-butyl acetate): 0%
% Form A ([2]; Formulation I constituted with 18 mL 0.197 mg/ml ethyl acetate): 0%
% Form A ([2]; Formulation I constituted with 18 mL 0.587 mg/ml benzaldehyde): 0%
% Form A ([2]; Formulation I constituted with 18 mL 0.785 mg/ml 3-methyl-butyl acetate + 0.562 mg/ml benzaldehyde): 11%
% Form A ([2]; Formulation I constituted with 18 mL 0.815 mg/ml 3-methyl-butyl acetate): 2%
% Form A ([2]; Formulation I constituted with 18 mL Water, listed as form G, sesquihydrate): no conversion
% Form A ([2]; Formulation I constituted with 18 mL Water, sesquihydrate): 0%
% Form A ([2]; Formulation II constituted with 18 mL Water, listed as form G, sesquihydrate): approximately 71%
% Form A ([2]; Formulation II constituted with 18 mL Water, sesquihydrate): 71%
% Form A ([3]; POS Formulation II + Hydroxypropyl β-cyclodextrin 1.2 % w/w, Series 2, 18 mls water): 4.0%
% Form A ([3]; POS Formulation II + Hydroxypropyl β-cyclodextrin 11.1 % w/w, Series 3, 18 mls water): 4.9%
% Form A ([3]; POS Formulation II + Sulfobutylether β-cyclodextrin 1.2 % w/w, Series 2, 18 mls water): 14.4%
% Form A ([3]; POS Formulation II + Sulfobutylether β-cyclodextrin 11.1 % w/w, Series 3, 18 mls water): 7.0%
% Form A ([3]; POS Formulation II + α-cyclodextrin 1.2 % w/w, Series 1, 18 mls water): 4.8%
% Form A ([3]; POS Formulation II + β-cyclodextrin 1.2 % w/w, Series 2, 18 mls water): 8.3%
% Form A ([3]; POS Formulation II + γ-cyclodextrin 1.2 % w/w, Series 1, 18 mls water): 13.4%
% Form A ([3]; POS Formulation II, no cyclodextrin (Control), Series 1, 18 mls water): 68.3%
% Form A ([3]; POS Formulation II, no cyclodextrin (Control), Series 2, 18 mls water): 46.5%
% Form A ([3]; POS Formulation II, no cyclodextrin (Control), Series 3, 18 mls water): 67.9%

From US20100048498A1, “STABLE NON-DIHYDRATE AZITHROMYCIN ORAL SUSPENSIONS” (priority 2004, published 2010)
